The target in the assay is human TrkA receptor (Homo sapiens (Human), UniProt P04629). Nature of the assay: DiscoverX PathHunter TrkA functional assay (NGF-stimulated U2OS cells). The class given is cell-based. The note with it: U2OS cells expressing human TrkA-PK, Shc1-EA and p75NTR; compound 1 h, then NGF at ~80% of maximal response for 3 h; luminescence.

Structures are written as SMILES.

Chain of human TrkA receptor (P04629 33-796): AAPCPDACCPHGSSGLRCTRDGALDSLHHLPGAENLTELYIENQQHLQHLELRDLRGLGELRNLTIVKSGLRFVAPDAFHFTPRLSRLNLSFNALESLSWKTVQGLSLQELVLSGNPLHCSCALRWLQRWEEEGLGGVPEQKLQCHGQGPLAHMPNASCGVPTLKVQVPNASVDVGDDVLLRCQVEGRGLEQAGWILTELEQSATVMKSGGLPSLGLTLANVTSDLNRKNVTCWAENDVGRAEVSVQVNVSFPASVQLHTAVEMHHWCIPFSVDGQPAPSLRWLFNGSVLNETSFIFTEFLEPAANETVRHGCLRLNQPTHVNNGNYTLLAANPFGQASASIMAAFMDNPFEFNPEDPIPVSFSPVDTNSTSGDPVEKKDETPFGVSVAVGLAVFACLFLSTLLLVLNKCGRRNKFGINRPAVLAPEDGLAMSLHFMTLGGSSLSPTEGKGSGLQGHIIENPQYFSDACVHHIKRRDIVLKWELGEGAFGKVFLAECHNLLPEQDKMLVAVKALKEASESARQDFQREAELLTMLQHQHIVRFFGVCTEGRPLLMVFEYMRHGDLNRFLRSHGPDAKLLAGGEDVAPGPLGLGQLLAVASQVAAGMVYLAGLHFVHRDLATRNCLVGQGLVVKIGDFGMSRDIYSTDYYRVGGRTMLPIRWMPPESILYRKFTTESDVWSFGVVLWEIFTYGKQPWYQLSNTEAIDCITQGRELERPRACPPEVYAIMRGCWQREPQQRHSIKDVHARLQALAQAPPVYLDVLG

With `Cc1ccccc1-c1nc(CC(N)=O)ncc1NC(=O)c1cc(-c2ccn(C)n2)c(C(F)(F)F)cc1F` [Example 117, N-(2-(2-amino-2-oxoethyl)-4-(o-tolyl)pyrimidin-5-yl)-2-fluoro-5-(1-methyl-1H-pyrazol-3-yl)-4-(trifluoromethyl)benzamide], the IC50 – broadly, the point on the concentration scale where inhibition reaches its midpoint – worked out at 4.9 nM. Regarding `Cn1ccc(-c2cc(C(=O)Nc3cnc(C(O)C(N)=O)nc3-c3ccccc3)c(F)cc2C(F)(F)F)n1` (stereo not drawn) [Example 118, N-(2-(2-amino-1-hydroxy-2-oxoethyl)-4-phenylpyrimidin-5-yl)-2-fluoro-5-(1-methyl-1H-pyrazol-3-yl)-4-(trifluoromethyl)benzamide], 3.8 nM corresponded to half-maximal inhibition (IC50). Turning to `Cn1ccc(-c2cc(C(=O)Nc3cnc(C4(C(N)=O)CC4)nc3-c3ccccc3)c(F)cc2C(F)(F)F)n1` [Example 119, N-(2-(1-carbamoylcyclopropyl)-4-phenylpyrimidin-5-yl)-2-fluoro-5-(1-methyl-1H-pyrazol-3-yl)-4-(trifluoromethyl)benzamide], the IC50 is 7.9 nM.

In the case of `Cn1ccc(-c2cc(C(=O)Nc3ncc(CC(N)=O)nc3-c3ccccc3)c(F)cc2C(F)(F)F)n1` [Example 120, N-(5-(2-amino-2-oxoethyl)-3-phenylpyrazin-2-yl)-2-fluoro-5-(1-methyl-1H-pyrazol-3-yl)-4-(trifluoromethyl)benzamide], half-maximal inhibition (IC50) was put at 8.7 nM.

The compound `Cn1ccc(-c2cc(C(=O)Nc3cnc(C(C)(C)C(=O)O)nc3-c3ccccc3)c(F)cc2C(F)(F)F)n1` [Example 121, 2-(5-(2-fluoro-5-(1-methyl-1H-pyrazol-3-yl)-4-(trifluoromethyl)benzamido)-4-phenylpyrimidin-2-yl)-2-methylpropanoic acid] came in with an IC50 of 8 nM. The compound `Cn1ccc(-c2cc(C(=O)Nc3cnc(C(C)(C)C(N)=O)nc3-c3ccccc3)c(F)cc2C(F)(F)F)n1` [Example 122, N-(2-(1-amino-2-methyl-1-oxopropan-2-yl)-4-phenylpyrimidin-5-yl)-2-fluoro-5-(1-methyl-1H-pyrazol-3-yl)-4-(trifluoromethyl)benzamide] registered a half-maximal inhibitory concentration (IC50) of 18 nM. Compound `NC(=O)Cc1ncc(NC(=O)c2cc(-c3ccccn3)c(C(F)(F)F)cc2F)c(-c2ccccc2)n1` [Example 123, N-(2-(2-amino-2-oxoethyl)-4-phenylpyrimidin-5-yl)-2-fluoro-5-(pyridin-2-yl)-4-(trifluoromethyl)benzamide] yielded a 50% inhibitory concentration (IC50) of 8.4 nM.

With `NC(=O)Cc1ccc(NC(=O)c2cc(-c3ccccn3)c(C(F)(F)F)cc2F)c(-c2ccccc2)n1` [Example 124, N-(6-(2-amino-2-oxoethyl)-2-phenylpyridin-3-yl)-2-fluoro-5-(pyridin-2-yl)-4-(trifluoromethyl)benzamide], half-maximal inhibition (IC50) was put at 8.8 nM. The same measure for `NC(=O)Cc1ncc(NC(=O)c2cc(-c3ncccn3)c(C(F)(F)F)cc2F)c(-c2ccccc2)n1` [Example 125, N-(2-(2-amino-2-oxoethyl)-4-phenylpyrimidin-5-yl)-2-fluoro-5-(pyrimidin-2-yl)-4-(trifluoromethyl)benzamide]: 14 nM; for `NC(=O)Cc1ncc(NC(=O)c2cc(-c3cc[nH]n3)c(C(F)(F)F)cc2F)c(-c2ccccc2)n1` [Example 126, N-(2-(2-amino-2-oxoethyl)-4-phenylpyrimidin-5-yl)-2-fluoro-5-(1H-pyrazol-3-yl)-4-(trifluoromethyl)benzamide]: 17 nM; for `NC(=O)Cc1cc(-c2ccccc2)c(NC(=O)c2cc(-c3ccccn3)c(C(F)(F)F)cc2F)cn1` [Example 127, N-(6-(2-amino-2-oxoethyl)-4-phenylpyridin-3-yl)-2-fluoro-5-(pyridin-2-yl)-4-(trifluoromethyl)benzamide]: 6 nM.

On to `Cn1ccc(-c2cc(C(=O)Nc3cnc(CCC(N)=O)nc3-c3ccccc3)c(F)cc2C(F)(F)F)n1` [Example 128, N-(2-(3-Amino-3-oxopropyl)-4-phenylpyrimidin-5-yl)-2-fluoro-5-(1-methyl-1H-pyrazol-3-yl)-4-(trifluoromethyl)benzamide], for which the half-maximal inhibitory concentration (IC50) is 0.54 nM.
